# Laboratory results published in paper PMC9106035, “Synthesis, X-ray Structure and Biological Studies of New Self-Assembled Cu(II) Complexes Derived from s-Triazine Schiff Base Ligand” (Molecules, 2022).
# “And” between values parts separate entries of the source, which are not always exact repeats. Equal entries are not always repeated. Where two headings read alike, the source gives them in different places. Marks after values point to notes of the source that are not given here.
# Legend:
# [1] = DPPH radical scavenging assay; type: biochemical
# Description: The studied Cu(II) complexes and the free ligands were assessed for their antioxidant activity levels using an α,α-diphenyl-β-picrylhydrazyl (DPPH) scavenging assay, and the results are given in Table 7. […] The results indicated better antioxidant activity for DMAT than for DMOHT, indicating the effect of the substituent at the phenyl moiety on the antioxidant activity level of the free ligand. […] On the other hand, the Cu(II) complexes have improved levels of antioxidant activity compared to the free ligands.
# Method S3 DPPH Radical Scavenging Activity:
# Freshly prepared (0.004 %w/v) methanol solution of 2,2-diphenyl-1-pi crylhydrazyl (DPPH) radical was prepared and stored at 10 °C in dark place. A methanolic solution of the test compound was prepared using the same procedure. A 40 uL aliquot of the methanol solution was added to 3mL of DPPH solution. Absorbance measurements were recorded immediately with a UV-visible spectrophotometer (Milton Roy, Spectronic 1201). The decrease in absorbance at 515 nm was determined continuously, with data being recorded at 1 min intervals until the absorbance stabilized (16 min). The absorbance of the DPPH radical without antioxidant (control) and the reference compound ascorbic acid were also measured.
# All the determinations were performed in three replicates and averaged. The percentage inhibition (PI) of the DPPH radical was calculated according to the […]
# PI = [{(AC- AT)/ AC} x 100] (1)
# Where AC = Absorbance of the control at t = 0 min and AT = absorbance of the sample+DPPH at t = 16 min. The 50% inhibitory concentration (IC50), the concentration required t o inhibit DPPH radical by 50%, was estimated from graphic plots of the dose respons e curve.
# [2] = test system: A. fumigatus (RCMB 002008); experiment: Agar well diffusion, inhibition zone; type: cell-based; settings: 10 mg/mL of the tested compounds
# Description: (§1) The antimicrobial activity of the free ligands and the corresponding Cu(II) complexes was determined against different categories of microbes (Table 5). All inhibition zones were determined at 10 mg/mL of the tested compounds. […] The largest inhibition zones were found for B. subtilis (25 mm), which is very close to the standard Gentamycin (26 mm). […] Complex 1 evidenced antimicrobial activity against all microbes except C. albicans.
# (§2) Method S2: Antimi crobial studies a) Tested pathogenic microbes
# (§3) The antibacterial a ctivity of the studied ligands and their Cu(II) complexes were evaluated against two Gram positive bacteria ((S. aureus (ATCC 25923) and B. subtilis (RCMB015(1)NRR LB-543)), two Gram negatvie bacteria ((E. coli (ATCC 25922) and P. vulgaris (RCMB 004(1)ATCC 13315)) and two fungi ((A. fumigatus […]
# was used as standard antibacterial agent. The samples maintained in Brain heart infusion (BHI) at 20 °C; […] of each stock–c ulture was added to 3 mL of BHI […]
# broth. […]
# (§4) 0.5). In case of fungi A. fumigatus (RCMB 002008) and C. albicans (RCMB 005003(1) ATCC 10231), the used medium in antagonistic activity against tested fungi is Potato Dextrose Agar, where Fluconazole was used standard antifungal agent. b) Agar well diffusion method
# (§5) Synthetic compounds were prepared at concentration 10 mg/mL dissolved in DMSO as stock solutions. Preparation of sterilized Mueller Hinton agar plates seeded with tested pathogenic b acteria occurred. The wells are done by sterilized cork borer in size […]
# (§6) comparably with DMSO as control. The plates were incubated at 37°C for 24 h. after incubation period; antimicrobial activity was d etermined by inhibition zones. […]
# [3] = test system: C. albicans (RCMB 005003(1) ATCC 10231); experiment: Agar well diffusion, inhibition zone; type: cell-based; settings: 10 mg/mL of the tested compounds
# Description: as §1, §2
# (§7) The antibacterial a ctivity of the studied ligands and their Cu(II) complexes were evaluated against two Gram positive bacteria ((S. aureus (ATCC 25923) and B. […]
# as §4, §5, §6
# [4] = test system: A. fumigatus (RCMB 002008); experiment: Minimum Inhibitory Concentration (MIC); type: cell-based
# Description: as §2, §7
# (§8) 0.5). In case of fungi A. fumigatus (RCMB 002008) and C. albicans (RCMB 005003(1) ATCC 10231), the used medium in antagonistic activity against tested fungi is Potato Dextrose Agar, where Fluconazole was used standard antifungal agent. […]
# (§9) c) Minimum Inhibitory Concentration (MIC)
# (§10) Different dilutions of the compounds are inoculat ed with tested pathogenic microbes.
# (§11) After incubation period of 96 well microplate, the results are meas ured using microplate reader. To determine at what level the MIC endpoint is established; subculture of test samples at different concentrati ons occurred in nutrient agar plates.
# [5] = test system: C. albicans (RCMB 005003(1) ATCC 10231); experiment: Minimum Inhibitory Concentration (MIC); type: cell-based; settings: Candida albicans, read-out: MIC
# Description: as §2, §7, §8, §9, §10, §11
# [6] = test system: lung carcinoma A-549 cell line; experiment: Anticancer activity, MTT viability assay; type: cell-based; settings: A-549 cells, 24 h, MTT
# Description: The studied compounds were examined for their anticancer activity against the lung carcinoma A-549 cell line.
# Method S4 Evaluation of Cytotoxic activity
# The cells were propagated in Dulbecco’s modified Eagle’s medium (DMEM) supplemented with 10% heat-inactivated fetal bovine serum, 1 % L-glutamine, HEPES buffer and 50µg/mL Gentamycin. All cells were maintained at 37 °C in a humidified atmosphere with 5% CO2 and were subcultured tw o times a week.
# Cytotoxicity evaluation using viability assay
# For cytotoxicity assay, the cells were seeded in 96-well plate at a cell concentration of 1×10^4 cells per well in 100µl of growth medium. Fresh medium containing different concentrations of the test sample was added after 24 h of seeding. Serial two-fold dilutions of the tested chemical compound were added to confluent cell monolayers dispensed into 96-well, flat-bottomed microtiter plates (Falcon, NJ, USA) using a multichannel pipette. The microtiter plates were incubated at 37 °C in a humidified incubator with 5% CO2 for a period of 24 h. Three wells were used for each concentration of the test sample. Control cells were incubated without test sample and with or without DMSO. The little percentage of DMSO present in the […]
# cells for at 37°C, for 24 h, the viabl e cells yield was determined by the MTT test.
# Briefly, the media was removed from the 96 well plate and replaced with 100 µL of fresh culture DMEM m edium without phenol red then 10 µL of the 12 mM MTT stock solution (5 mg of MTT in 1 mL of PBS) to each well including the untreated controls. The 96 well plates were then incubated at 37°C and 5% CO2 for 4 hours. An 85 µL aliquot of the media was removed from t he wells, and 50 µL of DMSO was added to each well and mixed thoroughly with the pipette and incubated at 37°C for 10 min. Then, the optical density was measured at 590 nm with the microplate reader (SunRise, TECAN, Inc, USA) to determine the number of viable cells and the percentage of viability was calculat ed as [(ODt/ODc)]x100% where ODt i s the mean optical density of wells treated with the tested s ample and ODc is the mean optical density of untreated cells. The relation between surviving cells and drug concentration is plotted to get the survival curve of each tumor cell line after treatment with the specified compound. The 50% inhibitory concentration (IC50), the concentration required to cause t oxic effects in 50% of intact cells, was estimated from graphic plots of the dose response curve for each conc. using Graphpad Prism software (San Diego, […]
# [7] = test system: B. subtilis (RCMB015(1)NRR LB-543); experiment: Agar well diffusion, inhibition zone; type: cell-based; settings: 10 mg/mL of the tested compounds
# Description: as §1, §2, §3
# (§12) was used as standard antibacterial agent. The samples maintained in Brain heart infusion (BHI) at 20 °C; […] of each stock–c ulture was added to 3 mL of BHI broth. Overnight cultures were kept for 24 h at 37 °C ± 1 °C and the purity of cultures was checked aft er 24 h of incubation. […]
# (§13) b) Agar well diffusion method
# as §5, §6
# [8] = test system: E. coli (ATCC 25922); experiment: Agar well diffusion, inhibition zone; type: cell-based; settings: 10 mg/mL of the tested compounds
# Description: as §1, §2, §3, §12, §13, §5, §6
# [9] = test system: P. vulgaris (RCMB 004(1)ATCC 13315); experiment: Agar well diffusion, inhibition zone; type: cell-based; settings: 10 mg/mL of the tested compounds
# Description: as §1, §2, §3, §12, §13, §5, §6
# [10] = test system: S. aureus (ATCC 25923); experiment: Agar well diffusion, inhibition zone; type: cell-based; settings: 10 mg/mL of the tested compounds
# Description: as §1, §2, §3, §12, §13, §5, §6
# [11] = test system: B. subtilis (RCMB015(1)NRR LB-543); experiment: Minimum Inhibitory Concentration (MIC); type: cell-based
# Description: as §2, §3, §12, §9, §10, §11
# [12] = test system: E. coli (ATCC 25922); experiment: Minimum Inhibitory Concentration (MIC); type: cell-based
# Description: as §2, §3, §12, §9, §10, §11
# [13] = test system: P. vulgaris (RCMB 004(1)ATCC 13315); experiment: Minimum Inhibitory Concentration (MIC); type: cell-based
# Description: as §2, §3, §12, §9, §10, §11
# [14] = test system: S. aureus (ATCC 25923); experiment: Minimum Inhibitory Concentration (MIC); type: cell-based
# Description: as §2, §3, §12, §9, §10, §11
compound,measurement,setting,value
"O=C1O[C@H]([C@@H](O)CO)C(O)=C1O [Ascorbic Acid, ascorbic acid, reference compound]",DPPH Scavenging %,[1]; Conc. 2.5 μg/mL,34.57%
same,DPPH Scavenging %,[1]; Conc. 5 μg/mL,40.36%
same,DPPH Scavenging %,[1]; Conc. 10 μg/mL,48.52%
same,DPPH Scavenging %,[1]; Conc. 20 μg/mL,71.38%
same,DPPH Scavenging %,[1]; Conc. 40 μg/mL,83.09%
same,DPPH Scavenging %,[1]; Conc. 80 μg/mL,90.25%
same,DPPH Scavenging %,[1]; Conc. 160 μg/mL,92.31%
same,DPPH Scavenging %,[1]; Conc. 320 μg/mL,95.64%
same,DPPH Scavenging %,[1]; Conc. 640 μg/mL,97.83%
same,DPPH Scavenging %,[1]; Conc. 1280 μg/mL,98.91%
same,IC50 (DPPH scavenging),[1]; antioxidant activity,10.62 ± 0.84 µg/mL
"CC(=O)N1CCN(c2ccc(OCC3COC(Cn4ccnc4)(c4ccc(Cl)cc4Cl)O3)cc2)CC1 (stereo not shown) [Ketoconazole, reference compound]",Inhibition zone diameters,[2],17 mm and 17 ^a mm
same,Inhibition zone diameters,[3],20 ^a mm
same,MIC,[4],156.25 ^a μg/mL
same,MIC,"[4]; Aspergillus fumigatus, RCMB002008, read-out: MIC",156 µg/mL
same,MIC,[5],312 µg/mL
"N.N.[Cl][Pt][Cl] [cis-Platin, cis-platin, reference compound]",IC50,[6],25 µM
Gentamycin [reference compound],Inhibition zone diameters,[7],26 mm and 26 ^b mm
same,Inhibition zone diameters,[8],30 ^b mm
same,Inhibition zone diameters,[9],25 ^b mm
same,Inhibition zone diameters,[10],24 ^b mm
same,MIC,[11],4.8 μg/mL and 4.8 ^b μg/mL
same,MIC,[12],4.8 ^b μg/mL
same,MIC,[13],4.8 ^b μg/mL
same,MIC,[14],9.7 ^b μg/mL
